The structures appear in SMILES notation.

Among the data in US20080045537A1, “Chemical Compounds” (priority 2004, published 2008) are IC50 values, retold here.

This experiment deals with HIV-1 IIIB (T-tropic, CXCR4 utilizing). In words: HOS HIV-1 infectivity assay. Conditions: Human immunodeficiency virus 1, IIIB; as determined by the infectivity assay; strain not stated in Table 2; read-out: Activity Level. It is filed as cell-based. Here is the method: Compounds were profiled against two HIV-1 viruses, the M-tropic (CCR5 utilizing) Ba-L strain and the T-tropic (CXCR4 utilizing) IIIB strain. Both viruses were propagated in human peripheral blood lymphocytes. Compounds were tested for there ability to block infection of the HOS cell line (expressing hCXCR4/hCCR5/hCD4/pHIV-LTR-luciferase) by either HIV-1 Ba-L or HIV-1 IIIB. Compound cytotoxicity was also examined in the absence of virus addition.
HOS cells (expressing hCXCR4/hCCR5/hCD4/pHIV-LTR-luciferase) were harvested and diluted in Dulbeccos modified Eagles media supplemented with 2% FCS and non-essential amino acid to a concentration of 60,000 cells/ml. The cells were plated into 96-well plates (100 ul per well) and the plates were placed in a tissue culture incubator (37° C.; 5% CO2/95% air) for a period of 24 h.
Subsequently, 50 ul of the desired drug solution (4 times the final concentration) was added to each well and the plates were returned to the tissue culture incubator (37° C.; 5% CO2/95% air) for 1 h. Following this incubation 50 ul of diluted virus was added to each well (approximately 2 million RLU per well of virus). The plates were returned to the tissue culture incubator (37° C.; 5% CO2/95% air) and were incubated for a further 96 h.
Following this incubation the endpoint for the virally infected cultures was quantified following addition of Steady-Glo Luciferase assay system reagent (Promega, Madison, Wis.). Cell viability or non-infected cultures was measured using a CellTiter-Glo luminescent cell viability assay system (Promega, Madison, Wis.). All luminescent readouts are performed on a Topcount luminescence detector (Packard, Meridien, Conn.).
`CN(Cc1nc2cc(C(=O)NCC3CCNCC3)ccc2[nH]1)C1CCCc2cccnc21` (stereo not shown) [Example 38, 2-{[Methyl(5,6,7,8-tetrahydroquinolin-8-yl)amino]methyl}-N-(piperidin-4-ylmethyl)-1H-benzimidazole-5-carboxamide]: the IC50 was 500 to 10000 nM.
The figure for `CC(=O)N1CCN(C(=O)c2cccc3[nH]c(CN(C)C4CCCc5cccnc54)nc23)CC1` (stereo not shown) [Example 84, N-({4-[(4-Acetyl-1-piperazinyl)carbonyl]-1H-benzimidazol-2-yl}methyl)-N-methyl-5,6,7,8-tetrahydro-8-quinolinamine] is 100 to 500 nM.
Take `CN(Cc1nc2c(CCCN3CCCC3)cccc2[nH]1)C1CCCc2cccnc21` (stereo not shown) [Example 95, N-Methyl-N-({4-[3-(1-pyrrolidinyl)propyl]-1H-benzimidazol-2-yl}methyl)-5,6,7,8-tetrahydro-8-quinolinamine]: the IC50 was below 100 nM.
In the case of `CN1CCN(c2cccc3nc(CN(CC4CC4)[C@H]4CCCc5cccnc54)[nH]c23)CC1` [Example 140, (8S)—N-(Cyclopropylmethyl)-N-{[4-(4-methyl-1-piperazinyl)-1H-benzimidazol-2-yl]methyl}-5,6,7,8-tetrahydro-8-quinolinamine], the IC50 was below 100 nM.
`CN1CCN(c2cccc3nc(CN(Cc4ccccc4)[C@H]4CCCc5cccnc54)n(C)c23)CC1` [Example 169, (8S)—N-{[1-Methyl-7-(4-methyl-1-piperazinyl)-1H-benzimidazol-2-yl]methyl}-N-(Phenylmethyl)-5,6,7,8-tetrahydro-8-quinolinamine]: the IC50 is below 100 nM.
With `CCCN(Cc1nc2cccc(N3CCN(C)CC3)c2n1C)C1CCCc2cccnc21` (stereo not shown) [Example 155, N-{[1-Methyl-7-(4-methyl-1-piperazinyl)-1H-benzimidazol-2-yl]methyl}-N-propyl-5,6,7,8-tetrahydro-8-quinolinamine], the IC50 is below 100 nM.
As for `COCCNC(=O)c1cccc2nc(CN(C)C3CCCc4cccnc43)[nH]c12` (stereo not shown) [Example 64, N-[2-(Methyloxy)ethyl]-2-{[methyl(5,6,7,8-tetrahydro-8-quinolinyl)amino]methyl}-1H-benzimidazole-4-carboxamide], the IC50 was 500 to 10000 nM.
For the molecule `CN1CCN(c2cccc3nc(CN(C)C4CCc5cccnc54)[nH]c23)CC1` (stereo not shown) [Example 183, N-Methyl-N-{[4-(4-methyl-1-piperazinyl)-1H-benzimidazol-2-yl]methyl}-6,7-dihydro-5H-cyclopenta[b]pyridin-7-amine], the IC50 was below 100 nM.
In the case of `CN1CCCN(C(=O)c2cccc3[nH]c(CN(C)C4CCCc5cccnc54)nc23)CC1` (stereo not shown) [Example 86, N-Methyl-N-({4-[(4-methylhexahydro-1H-1,4-diazepin-1-yl)carbonyl]-1H-benzimidazol-2-yl}methyl)-5,6,7,8-tetrahydro-8-quinolinamine] it was below 100 nM; in that of `Cn1c(CN(CCCO)[C@H]2CCCc3cccnc32)nc2cccc(N3CCNCC3)c21` [Example 179, 3-{{[1-Methyl-7-(1-piperazinyl)-1H-benzimidazol-2-yl]methyl}[(8S)-5,6,7,8-tetrahydro-8-quinolinyl]amino-}1-propanol], below 100 nM.
With `CCn1c(CN(Cc2ccccc2)[C@H]2CCCc3cccnc32)nc2cccc(N3CCN(C)CC3)c21` [Example 165, (8S)—N-{[1-Ethyl-7-(4-methyl-1-piperazinyl)-1H-benzimidazol-2-yl]methyl}-N-(Phenylmethyl)-5,6,7,8-tetrahydro-8-quinolinamine], the IC50 is below 100 nM.
As for `CN1CCN(c2cccc3[nH]c([C@H](COCc4ccccc4)N(C)C4CCCc5cccnc54)nc23)CC1` (stereo partly drawn) [Example 176, N-Methyl-N-{(1R)-1-[4-(4-methyl-1-piperazinyl)-1H-benzimidazol-2-yl]-2-[(phenylmethyl)oxy]ethyl}-5,6,7,8-tetrahydro-8-quinolinamine], the IC50 was below 100 nM.
The figure for `CN1CCN(c2cccc3nc(CNC4CCCCc5cccnc54)[nH]c23)CC1` (stereo not shown) [Example 184, N-{[4-(4-methyl-1-piperazinyl)-1H-benzimidazol-2-yl]methyl}-6,7,8,9-tetrahydro-5H-cyclohepta[b]pyridin-9-amine] is below 100 nM.
